Each block holds one compound with its values, some of them ahead of it.
Experiments:
[1] = tested on: F21D (DNA, G4) GGGTTAGGGTTAGGGTTAGGG; experiment: FRET melting; settings: 5 mM KCl, 95 mM LiCl; 10 mM lithium cacodylate, pH 7.2; 0.4 µM ligand, 0.2 µM F21D
[2] = tested on: Tel22 (DNA, G4) AGGGTTAGGGTTAGGGTTAGGG; experiment: UV-Vis titration, direct fit; settings: 5 mM KCl, 95 mM LiCl, 10 mM lithium cacodylate, stoichiometry fixed, equivalent sites
[3] = tested on: VEGF (DNA, G4) GGGAGGGTTGGGGTGGG; experiment: fluorescence light-switch, plate reader; settings: 5 mM KCl, 95 mM LiCl; 10 mM lithium cacodylate, pH 7.2, 25 °C; about 0.1 µM PtTMPyP4, DNA:porphyrin 50:1; intensity ratio, not affinity
[4] = tested on: Tel22 (DNA, G4) AGGGTTAGGGTTAGGGTTAGGG; experiment: fluorescence titration, direct fit; settings: 5 mM KCl, 95 mM LiCl; 10 mM lithium cacodylate, pH 7.2, 20 °C; 1.7-2.0 µM PtTMPyP4; equivalent sites
[5] = tested on: 26TelG4 (DNA, G4) AGGGGTTAGGGGTTAGGGGTTAGGGG; experiment: fluorescence light-switch, plate reader; settings: 10 mM lithium cacodylate, pH 7.2, 25 °C, about 0.1 µM PtTMPyP4, DNA:porphyrin 50:1, intensity ratio, not affinity
[6] = tested on: Bcl-2 (DNA, G4) GGGCGCGGGAGGGAATTGGGCGGG; experiment: fluorescence light-switch, plate reader; settings: 5 mM KCl, 95 mM LiCl; 10 mM lithium cacodylate, pH 7.2, 25 °C; about 0.1 µM PtTMPyP4, DNA:porphyrin 50:1; intensity ratio, not affinity
[7] = tested on: TBA (DNA, G4) GGTTGGTGTGGTTGG; experiment: fluorescence light-switch, plate reader; settings: 10 mM lithium cacodylate, pH 7.2, 25 °C, about 0.1 µM PtTMPyP4, DNA:porphyrin 50:1, intensity ratio, not affinity
[8] = tested on: cMyc (DNA, G4) TGAGGGTGGGTAGGGTGGGTAA; experiment: fluorescence light-switch, plate reader; settings: 5 mM KCl, 95 mM LiCl; 10 mM lithium cacodylate, pH 7.2, 25 °C; about 0.1 µM PtTMPyP4, DNA:porphyrin 50:1; intensity ratio, not affinity
[9] = tested on: Tel22 (DNA, G4) AGGGTTAGGGTTAGGGTTAGGG; experiment: fluorescence light-switch, plate reader; settings: 10 mM lithium cacodylate, pH 7.2, 25 °C, about 0.1 µM PtTMPyP4, DNA:porphyrin 50:1, intensity ratio, not affinity
[10] = tested on: 17A (DNA, single strand) CCAGTTCGTAGTAACCC; experiment: fluorescence light-switch, plate reader; settings: 5 mM KCl, 95 mM LiCl; 10 mM lithium cacodylate, pH 7.2, 25 °C; about 0.1 µM PtTMPyP4, DNA:porphyrin 50:1; intensity ratio, not affinity
[11] = tested on: G4T4G4 (DNA, G4) GGGGTTTTGGGG; experiment: fluorescence light-switch, plate reader; settings: 10 mM lithium cacodylate, pH 7.2, 25 °C, about 0.1 µM PtTMPyP4, DNA:porphyrin 50:1, intensity ratio, not affinity
[12] = tested on: ds26 (DNA, duplex) CAATCGGATCGAATTCGATCCGATTG; experiment: fluorescence light-switch, plate reader; settings: 5 mM KCl, 95 mM LiCl; 10 mM lithium cacodylate, pH 7.2, 25 °C; about 0.1 µM PtTMPyP4, DNA:porphyrin 50:1; intensity ratio, not affinity
[13] = tested on: cKit1 (DNA, G4) GGGAGGGCGCTGGGAGGAGGG; experiment: fluorescence light-switch, plate reader; settings: 5 mM KCl, 95 mM LiCl; 10 mM lithium cacodylate, pH 7.2, 25 °C; about 0.1 µM PtTMPyP4, DNA:porphyrin 50:1; intensity ratio, not affinity
[14] = tested on: 17B (DNA, single strand) GGGTTACTACGAACTGG; experiment: fluorescence light-switch, plate reader; settings: 5 mM KCl, 95 mM LiCl; 10 mM lithium cacodylate, pH 7.2, 25 °C; about 0.1 µM PtTMPyP4, DNA:porphyrin 50:1; intensity ratio, not affinity
[15] = tested on: G4TERT (DNA, G4) AGGGGAGGGGCTGGGAGGGC; experiment: fluorescence light-switch, plate reader; settings: 5 mM KCl, 95 mM LiCl; 10 mM lithium cacodylate, pH 7.2, 25 °C; about 0.1 µM PtTMPyP4, DNA:porphyrin 50:1; intensity ratio, not affinity
[16] = tested on: 17AB (DNA, duplex) CCAGTTCGTAGTAACCC/GGGTTACTACGAACTGG; experiment: fluorescence light-switch, plate reader; settings: 5 mM KCl, 95 mM LiCl; 10 mM lithium cacodylate, pH 7.2, 25 °C; about 0.1 µM PtTMPyP4, DNA:porphyrin 50:1; intensity ratio, not affinity

ΔTm [1]: 30.9 ± 0.4 °C
binding affinity ([2]; pH 7.2): (1.0 ± 0.3) × 10^7 M^-1
SMILES: C[n+]1ccc(-c2c3nc(c(-c4cc[n+](C)cc4)c4ccc([n-]4)c(-c4cc[n+](C)cc4)c4nc(c(-c5cc[n+](C)cc5)c5ccc2[n-]5)C=C4)C=C3)cc1.[Pd+2]

ΔTm [1]: 30.7 ± 0.6 °C
Fluorescence enhancement [3]: 76.9 ± 3.8
binding constant [4]: (1.8 ± 0.3) × 10^6 M^-1
Fluorescence enhancement ([5]; 5 mM KCl, 95 mM LiCl): 65.4 ± 4.8
Fluorescence enhancement ([5]; 50 mM NaCl, 50 mM LiCl): 54.1 ± 15
Fluorescence enhancement [6]: 39.2 ± 5.7
Fluorescence enhancement ([7]; 5 mM KCl, 95 mM LiCl): 29.5 ± 5.4
Fluorescence enhancement ([7]; 50 mM NaCl, 50 mM LiCl): 32.6 ± 6.8
Fluorescence enhancement [8]: 28.0 ± 5.0
Fluorescence enhancement ([9]; 5 mM KCl, 95 mM LiCl): 71.8 ± 10
Fluorescence enhancement ([9]; 50 mM NaCl, 50 mM LiCl): 54.2 ± 14.6
binding affinity ([2]; pH 7.2, 20 °C): (5.8 ± 0.8) × 10^6 M^-1
Fluorescence enhancement [10]: 38.1 ± 1.5
Fluorescence enhancement ([11]; 5 mM KCl, 95 mM LiCl): 42.2 ± 9.2
Fluorescence enhancement ([11]; 50 mM NaCl, 50 mM LiCl): 40.5 ± 12
Fluorescence enhancement [12]: 39.1 ± 5.2
Fluorescence enhancement [13]: 28.0 ± 5.6
Fluorescence enhancement [14]: 43.9 ± 3.0
Fluorescence enhancement [15]: 85.7 ± 0.9
Fluorescence enhancement [16]: 46.0 ± 0.7
SMILES: C[n+]1ccc(-c2c3nc(c(-c4cc[n+](C)cc4)c4ccc([n-]4)c(-c4cc[n+](C)cc4)c4nc(c(-c5cc[n+](C)cc5)c5ccc2[n-]5)C=C4)C=C3)cc1.[Pt+2]
